# Key:
# [1] = system: Penicillin-res. S. pneumonia ATCC 700671; test: MIC determination, PRSP; format: cell-based, Streptococcus pneumonia; settings: ATCC 700671, 24 h; for MIC: Streptococcus pneumoniae
# Description: (§1) Susceptibility testing for bacterial cultures is performed according to the National Council for Clinical Laboratory Standards (NCCLS) protocol M100-S12, “Performance Standards for Antimicrobial Susceptibility Testing.” The bacterial strains recommended by NCCLS were obtained from the American Type Culutre Collection (ATCC) (Table) and were maintained on Mueller Hinton (MHA) agar plates plus or minus 3% lysed horse blood (see Table). The bacteria were grown in Cation adjusted Mueller Hinton Broth (CaMHB) for liquid growth and susceptibility testing. S. cerevisiae (yeast) is grown in yeast peptone dextrose (YPD) media.
# (§2) All bacterial cultures were grown at 37 degrees Celsius. Fresh colonies of S. aureus and MRSA were inoculated into liquid media and grown overnight and diluted the next day to grow to mid-log (Table 2). E. faecalis and S. pneumonia mid-log cultures were started directly from colony on plates. To attain mid-log growth, cultures were grown to an optical density (OD) at A590 of 0.2-0.8 (see Table 2) and then diluted to proper OD to obtain 5×10^5 cells/mL.
# (§3) Diluted bacterial cultures are added to compound plates with compound diluted 2-fold from 100 μg/mL to 0.2 μg/mL final concentration in DMSO. Control antibiotics are also added: vancomycin, linezolid, and penicillin. In 384 well plates, 0.5 μL compound is added followed by addition of 50 μL of culture. DMSO alone is included as a control. Plates incubated at 37 degrees Celsius for 17-24 h.
# (§4) Plates with cells mixed with compounds are incubated for 17 h for S. aureus and yeast, 24 h for MRSA, and all Enterococcus and Streptococcus strains. Yeast plates are incubated […].
# (§5) Viability is determined by reading plates at A590 to determine optical density of treated and untreated cells and determining growth inhibition relative to controls.
# [2] = system: Staphylococcus aureus (Smith) ATCC 19636; test: MIC determination, S. aureus; format: cell-based; settings: S. aureus ATCC 19636, 17 h; for MIC: Staphylococcus aureus, ATCC19636
# Description: as §1, §2, §3, §4, §5
# [3] = system: Methicillin resistant S. aureus ATCC 33591; test: MIC determination, MRSA; format: cell-based, Staphylococcus aureus; settings: MRSA ATCC 33591, 24 h; for MIC: Staphylococcus aureus
# Description: as §1, §2, §3, §4, §5
Structure (SMILES),MIC PRSP [1],MIC S. aureus [2],MIC MRSA [3],MIC [1],MIC [2],MIC [3]
CC(O)C1ON(Cc2ccc(-c3ccc(Oc4ccccc4)cc3)cc2)C(C(=O)NCCc2c[nH]c3ccccc23)C1CO (centres unmarked),** (the MIC is 5-90 μg/mL),** (the MIC is 5-90 μg/mL),** (the MIC is 5-90 μg/mL),,,
CC(O)C1ON(Cc2ccc(C#Cc3cccc(O)c3)cc2)C(C(=O)NCCc2c[nH]c3ccccc23)C1CO (centres unmarked),** (the MIC is 5-90 μg/mL),** (the MIC is 5-90 μg/mL),** (the MIC is 5-90 μg/mL),,,
COc1ccc2[nH]cc(CCNC(=O)C3C(CO)C(C(C)O)ON3Cc3ccc(C#Cc4ccc(C)cc4)cc3)c2c1 (centres unmarked),** (the MIC is 5-90 μg/mL),** (the MIC is 5-90 μg/mL),* (the MIC is >90 μg/mL),,,
Cc1ccc(C#Cc2ccc(CN3OC(C(C)O)C(COC(=O)CN(C)C)C3C(=O)NCCc3c[nH]c4ccccc34)cc2)cc1 (centres unmarked),** (the MIC is 5-90 μg/mL),,** (the MIC is 5-90 μg/mL),,,
CC(O)C1ON(Cc2ccc(C=Cc3ccccc3)cc2)C(C(=O)NCCc2c[nH]c3ccccc23)C1CO (centres unmarked) [drawing 216],** (the MIC is 5-90 μg/mL),*** (the MIC is less than 5 μg/mL),*** (the MIC is less than 5 μg/mL),,,
Cc1ccc(C#Cc2ccc(CN3OC(C(C)O)C(CO)C3CNCCc3c[nH]c4ccccc34)cc2)cc1 (centres unmarked),* (the MIC is >90 μg/mL),** (the MIC is 5-90 μg/mL),** (the MIC is 5-90 μg/mL),,,
CC(O)C1ON(Cc2ccc(C#Cc3ccc(C(=O)O)cc3)cc2)C(C(=O)NCCc2c[nH]c3ccccc23)C1CO (centres unmarked),* (the MIC is >90 μg/mL),* (the MIC is >90 μg/mL),* (the MIC is >90 μg/mL),,,
Cc1ccc(C#Cc2ccc(CN3OC(C(C)O)C(CO)C3C(=O)NCCc3c[nH]c4ccccc34)cc2)cc1 (centres unmarked) [drawing 206],** (the MIC is 5-90 μg/mL),*** (the MIC is less than 5 μg/mL),*** (the MIC is less than 5 μg/mL),,,
Cc1ccc(C#Cc2ccc(CN3O[C@H]([C@@H](C)O)[C@H](CO)[C@@H]3C(=O)NCCN3CCCC3)cc2)cc1,,,,> 90 µg/mL,> 90 µg/mL,> 90 µg/mL
Cc1ccc(C#Cc2ccc(CN3OC(CN)CC3C(=O)NCCc3c[nH]c4ccccc34)cc2)cc1.Cl (centres unmarked),** (the MIC is 5-90 μg/mL),** (the MIC is 5-90 μg/mL),** (the MIC is 5-90 μg/mL),,,
Cc1ccc(C#Cc2ccc(CN3OC[C@H](CN(C)C)[C@H]3C(=O)NCCc3c[nH]c4ccccc34)cc2)cc1,,,,5 to 90 µg/mL,5 to 90 µg/mL,5 to 90 µg/mL
Cc1ccc(C#Cc2ccc(CN3OCC(CO)C3C(=O)NCCc3c[nH]c4ccccc34)cc2)cc1 (centres unmarked) [drawing 212],** (the MIC is 5-90 μg/mL),,*** (the MIC is less than 5 μg/mL),,,
Cc1ccc(C#Cc2ccc(CN3OC4CNCC4C3C(=O)NCCc3c[nH]c4ccccc34)cc2)cc1.Cl (centres unmarked),,,,,5 to 90 µg/mL,5 to 90 µg/mL
CC(O)C1ON(Cc2cccc(C=Cc3ccccc3)c2)C(C(=O)NCCc2c[nH]c3ccccc23)N1CO (centres unmarked),** (the MIC is 5-90 μg/mL),** (the MIC is 5-90 μg/mL),** (the MIC is 5-90 μg/mL),,,
Cc1ccc(C#Cc2ccc(CN3OC(CN)CC3C(=O)NCCc3c[nH]c4ccccc34)cc2)cc1 (centres unmarked),** (the MIC is 5-90 μg/mL),** (the MIC is 5-90 μg/mL),** (the MIC is 5-90 μg/mL),,,
Cc1ccc(C#Cc2ccc(CN3OC(CO)CC3C(=O)NCCc3c[nH]c4ccccc34)cc2)cc1 (centres unmarked),,,,5 to 90 µg/mL,5 to 90 µg/mL,5 to 90 µg/mL
CC(O)C1ON(Cc2cccc(C=Cc3ccc(Cl)cc3)c2)C(C(=O)NCCc2c[nH]c3ccccc23)C1CO (centres unmarked),** (the MIC is 5-90 μg/mL),*** (the MIC is less than 5 μg/mL),*** (the MIC is less than 5 μg/mL),,,

Structure (SMILES),MIC PRSP [1],MIC S. aureus [2],MIC MRSA [3],MIC [1],MIC [2],MIC [3]
Cc1ccc(C#Cc2ccc(CC3O[C@H]([C@@H](C)O)[C@H](CO)[C@@H]3C(=O)NCCc3nc4ccccc4[nH]3)cc2)cc1 (some centres unmarked),,,,5 to 90 µg/mL,5 to 90 µg/mL,5 to 90 µg/mL
CCCCCCN1O[C@@H]([C@H](C)O)[C@@H](CO)[C@H]1C(=O)NCCc1c[nH]c2ccccc12,* (the MIC is >90 μg/mL),* (the MIC is >90 μg/mL),* (the MIC is >90 μg/mL),,,
Cc1ccc(C#Cc2ccc(CN3O[C@@H]([C@@H](C)O)[C@@H](CO)[C@H]3CNCCc3c[nH]c4ccccc34)cc2)cc1,,,,,5 to 90 µg/mL,< 5 µg/mL
CC(O)C1ON(Cc2ccc(-c3ccc(C(C)(C)C)cc3)cc2)C(C(=O)NCCc2c[nH]c3ccccc23)C1CO (centres unmarked),** (the MIC is 5-90 μg/mL),** (the MIC is 5-90 μg/mL),* (the MIC is >90 μg/mL),,,
O=C(NCCc1c[nH]c2ccccc12)C1C(CO)C(CO)ON1Cc1ccc(C#Cc2ccccc2)cc1 (centres unmarked),** (the MIC is 5-90 μg/mL),** (the MIC is 5-90 μg/mL),** (the MIC is 5-90 μg/mL),,,
CC(O)C1ON(Cc2cccc(-c3ccc(Cl)cc3)c2)C(C(=O)NCCc2c[nH]c3ccccc23)C1CO (centres unmarked),** (the MIC is 5-90 μg/mL),** (the MIC is 5-90 μg/mL),** (the MIC is 5-90 μg/mL),,,
CC(O)C1ON(Cc2ccc(-c3ccc(Cl)cc3)cc2)C(C(=O)NCCc2c[nH]c3ccccc23)C1CO (centres unmarked),** (the MIC is 5-90 μg/mL),** (the MIC is 5-90 μg/mL),** (the MIC is 5-90 μg/mL),,,
CC(O)C1ON(CCCCCCc2ccccc2)C(C(=O)NCCc2c[nH]c3ccccc23)C1CO (centres unmarked),** (the MIC is 5-90 μg/mL),** (the MIC is 5-90 μg/mL),** (the MIC is 5-90 μg/mL),,,
CCCCCCCCCCCCN1O[C@@H]([C@H](C)O)[C@@H](CO)[C@H]1C(=O)NCCc1c[nH]c2ccccc12,,,,,< 5 µg/mL,< 5 µg/mL
CC(O)C1ON(Cc2ccc(Oc3ccccc3)cc2)C(C(=O)NCCc2c[nH]c3ccccc23)C1CO (centres unmarked),** (the MIC is 5-90 μg/mL),** (the MIC is 5-90 μg/mL),** (the MIC is 5-90 μg/mL),,,
CC(O)C1ON(CCCCCCCCc2ccccc2)C(C(=O)NCCc2c[nH]c3ccccc23)C1CO (centres unmarked),** (the MIC is 5-90 μg/mL),,** (the MIC is 5-90 μg/mL),,,
CCCCCCCCN1O[C@@H]([C@H](C)O)[C@@H](CO)[C@H]1C(=O)NCCc1c[nH]c2ccccc12,,,,,5 to 90 µg/mL,5 to 90 µg/mL
CC(O)C1ON(Cc2ccc(-c3cc4ccccc4o3)cc2)C(C(=O)NCCc2c[nH]c3ccccc23)C1CO (centres unmarked),** (the MIC is 5-90 μg/mL),** (the MIC is 5-90 μg/mL),** (the MIC is 5-90 μg/mL),,,
Cc1ccc(C#Cc2ccc(CN3OC(C(C)O)C(CO)C3C(=O)NCCc3c[nH]c4cc(F)ccc34)cc2)cc1 (centres unmarked),** (the MIC is 5-90 μg/mL),*** (the MIC is less than 5 μg/mL),*** (the MIC is less than 5 μg/mL),,,
CC(O)C1ON(Cc2cccc(-c3ccc(C(C)(C)C)cc3)c2)C(C(=O)NCCc2c[nH]c3ccccc23)C1CO (centres unmarked),** (the MIC is 5-90 μg/mL),*** (the MIC is less than 5 μg/mL),*** (the MIC is less than 5 μg/mL),,,
Cc1ccc(C#Cc2ccc(CN3O[C@@H]([C@@H](C)O)[C@@H](CN(C)C)[C@H]3C(=O)NCCc3c[nH]c4ccccc34)cc2)cc1,,,,5 to 90 µg/mL,< 5 µg/mL,< 5 µg/mL

# — patent publication US20060020004A1, “Isoxazolidine compounds for treatment of bacterial infections” (Infinity Pharmaceuticals, Inc., priority 2004, published 2006)
